Experimental data reported in patent US20230015647A1, “INHIBITORS OF HISTONE DEMETHYLASES (PFI-63 AND PFI-90) FOR THE TREATMENT OF CANCER AND FOR THE INHIBITION OF HISTONE DEMETHYLASE IN CELLS” (The United States of America,as represented by the …, priority 2019, published 2023).
Entries after “also recorded” stand apart in the source; their conditions may differ. Like-named read-outs stand apart in the source and are kept apart here.

Assays:
[1] = system: rhabdomyosarcoma cells; assay: Morphological imaging of treated cells; assay type: cell-based
Excerpt: Among the 64 compounds identified above, 33 compounds of unknown mechanism of action were identified.

[2] = system: RH30 cells; assay: Cell confluence assay (cytotoxicity) in RH30 cells; assay type: cell-based; conditions: 72 hour time point
Protocol: (§1) A cell confluence assay was performed to further assess the cytotoxicity of PFI-63 in RH4 and RH30 rhabdomyosarcoma cells. Confluence data was collected via photographic images of cells treated with PFI-63 at the following time points: 24 hours, 48 hours, 72 hours, 96 hours and 120 hours. Exemplary dose response curves at 72 hours are presented as FIGS. 10 and 11 in RH4 and RH30 cells, respectively.
as §1, with “to” for “to further”, “PFI-90” for “PFI-63”, “32” for “10”, “33” for “11”

[3] = system: RH4 cells; assay: Western blot (MYOG, cleaved PARP, PAX3-FOXO1); assay type: cell-based, human
Protocol: The GSEA results were supported by analysis via Western blot. […] This example confirms that PFI-63 disrupts PAX3-FOXO1 super enhancer circuitry. PFI-63 is also associated with upregulation of targets associated with myogenic differentiation and apoptosis.
In RH4 cells treated with PFI-90 at 3 μM, an increase in cleaved PARP (a marker for apoptosis) is observed at 24 hours (FIG. 48). This coincides with a decrease in PAX3-FOXO1 which is also observed at 24 hours (FIG. 49).

[4] = system: RH4 cells; assay: Caspase 3 apoptosis assay in RH4 cells; assay type: cell-based, human
Excerpt: (§2) The impact of PFI-63 and PFI-90 on apoptosis in rhabdomyosarcoma cells was investigated by assaying caspase 3 levels in the cells, and by annexin V staining.

[5] = system: RH30.19luc cells; assay: CRISPR/Cas9 genome-scale loss of function time course screen (GeCKOv2, TKOv3); assay type: cell-based; conditions: compared to DMSO
Protocol: To identify specific proteins targeted by PFI-63, a genome-scale loss of function time course screen was performed in RH30.19luc cells using two CRISPR/Cas9 libraries (GeCKOv2 and TKOv3) with and without treatment with PFI-63.

[6] = system: OSA-CL osteosarcoma cells; assay: Cell confluence assay in OSA-CL osteosarcoma cells; assay type: cell-based
Protocol: as §1, with “OSA-CL osteosarcoma” for “RH4 and RH30 rhabdomyosarcoma”, “59” for “10”, “60 for PFI-63” for “11 in RH4”, “PFI-90” for “RH30 cells,”

[7] = Log P / solubility; assay type: physicochemical
[8] = target: T1, KDM3B (JMJD1B) (Homo sapiens, UniProt Q7LBC6); assay: Eurofins histone lysine demethylase panel, enzymatic inhibition, substrate H3K9me1/2(3); assay type: biochemical; conditions: KDM3B (JMJD1B) enzymatic activity
T1 construct: The enzymatic activity of each of the full length protein was analyzed using known substrates; purchased Eurofins
Protocol: PFI-63 was sent to Eurofins (www.eurofins.com) for direct enzymatic inhibition activity analysis. The enzymatic activity of each of the full length protein was analyzed using known substrates such as methylated lysines. The proteins were treated with various concentrations of PFI-63. As described above, PFI-90 inhibitory activity was determined by Eurofins using enzymatic inhibition activity analysis of a panel of histone demethylases.

[9] = system: RH4 cells; assay: Annexin V staining; assay type: cell-based, human; conditions: relative to DMSO control
Excerpt: as §2

[10] = system: histone H3 methylation; assay: Western blot of histone H3 methylation in treated cells; assay type: cell-based
Excerpt: A diagram illustrating this activity is provided as FIG. 26.
Analysis via Western blot confirms that PFI-90 inhibits lysine demethylase activity.

[11] = system: truncated KDM3B catalytic domain; assay: 1D 1H NMR chemical shift perturbation; assay type: binding; conditions: 300 uM PFI-90, 12 uM protein, with or without 100 uM 2-OG
Excerpt: For reference, FIG. 63 depicts NMR peaks for PFI-90. While the peaks are complex, all relevant peaks are clearly resolved. FIG. 64 depicts NMR peaks obtained for […] (also called 2-oxoglutaric acid or “2-OG”), a substrate of histone demethylases. 2-OG peaks are easily resolved. FIG. 65 depicts results from a 1D 1H analysis of PFI-90.

[12] = system: truncated KDM3B catalytic domain; assay: CPMG relaxation editing NMR binding assay
Excerpt: (§3) A WaterLOGSY assay and a Carr-Purcell Meiboom-Gill (CPMG) based assay were used to investigate protein-ligand binding affinity between PFI-90 and a truncated KDM3B catalytic domain.
CPMG (Carr-Purcell-Meiboom-Gill) Relaxation Editing Proton NMR is another drug-discovery NMR experiment that may be used in conjunction with WaterLOGSY to orthogonally validate the presence of a reversible binding interaction of mild to high affinity from a small molecule to a label-free target. In contrast to WaterLOGSY, all peaks are phased above the X-axis. Instead, this experiment filters out the proportion of peak height that is contributed from the quantity of small molecule bound to a target of high molecular weight (e.g., a protein). Once the attenuation of peak height is equivalent to a 20% reduction, the compound is said to bind, with an increasing ratio of bound to unbound small molecules manifesting in increasing signal attenuation.

[13] = system: truncated KDM3B catalytic domain; assay: WaterLOGSY NMR binding assay; conditions: 300 μM; in the presence and in the absence of 2-OG
Excerpt: as §3
In traditional proton NMR experiments, a series of peaks are generated that represent the structure of a solitary small molecule, whereas the WaterLOGSY experiment examines the behavior of a small molecule's peaks in the presence of a potential target. This is achieved by observing differences in interaction between a small molecule interacting with water co-occupying a binding cleft on a target as compared to water dispersed freely in solution. The experiment then depicts the ratio of bound to unbound small molecule by phasing proton NMR spectra on the X-axis in opposing directions depending on the magnitude of that ratio (i.e., increasing ratios above 1 will phase positively, decreasing ratios below 1 will phase negatively).

[14] = 72 hour time point, read-out: IC50
[15] = approximate, read-out: IC50 (toxic to osteosarcoma cells)

T1 sequence (Q7LBC6 whole entry): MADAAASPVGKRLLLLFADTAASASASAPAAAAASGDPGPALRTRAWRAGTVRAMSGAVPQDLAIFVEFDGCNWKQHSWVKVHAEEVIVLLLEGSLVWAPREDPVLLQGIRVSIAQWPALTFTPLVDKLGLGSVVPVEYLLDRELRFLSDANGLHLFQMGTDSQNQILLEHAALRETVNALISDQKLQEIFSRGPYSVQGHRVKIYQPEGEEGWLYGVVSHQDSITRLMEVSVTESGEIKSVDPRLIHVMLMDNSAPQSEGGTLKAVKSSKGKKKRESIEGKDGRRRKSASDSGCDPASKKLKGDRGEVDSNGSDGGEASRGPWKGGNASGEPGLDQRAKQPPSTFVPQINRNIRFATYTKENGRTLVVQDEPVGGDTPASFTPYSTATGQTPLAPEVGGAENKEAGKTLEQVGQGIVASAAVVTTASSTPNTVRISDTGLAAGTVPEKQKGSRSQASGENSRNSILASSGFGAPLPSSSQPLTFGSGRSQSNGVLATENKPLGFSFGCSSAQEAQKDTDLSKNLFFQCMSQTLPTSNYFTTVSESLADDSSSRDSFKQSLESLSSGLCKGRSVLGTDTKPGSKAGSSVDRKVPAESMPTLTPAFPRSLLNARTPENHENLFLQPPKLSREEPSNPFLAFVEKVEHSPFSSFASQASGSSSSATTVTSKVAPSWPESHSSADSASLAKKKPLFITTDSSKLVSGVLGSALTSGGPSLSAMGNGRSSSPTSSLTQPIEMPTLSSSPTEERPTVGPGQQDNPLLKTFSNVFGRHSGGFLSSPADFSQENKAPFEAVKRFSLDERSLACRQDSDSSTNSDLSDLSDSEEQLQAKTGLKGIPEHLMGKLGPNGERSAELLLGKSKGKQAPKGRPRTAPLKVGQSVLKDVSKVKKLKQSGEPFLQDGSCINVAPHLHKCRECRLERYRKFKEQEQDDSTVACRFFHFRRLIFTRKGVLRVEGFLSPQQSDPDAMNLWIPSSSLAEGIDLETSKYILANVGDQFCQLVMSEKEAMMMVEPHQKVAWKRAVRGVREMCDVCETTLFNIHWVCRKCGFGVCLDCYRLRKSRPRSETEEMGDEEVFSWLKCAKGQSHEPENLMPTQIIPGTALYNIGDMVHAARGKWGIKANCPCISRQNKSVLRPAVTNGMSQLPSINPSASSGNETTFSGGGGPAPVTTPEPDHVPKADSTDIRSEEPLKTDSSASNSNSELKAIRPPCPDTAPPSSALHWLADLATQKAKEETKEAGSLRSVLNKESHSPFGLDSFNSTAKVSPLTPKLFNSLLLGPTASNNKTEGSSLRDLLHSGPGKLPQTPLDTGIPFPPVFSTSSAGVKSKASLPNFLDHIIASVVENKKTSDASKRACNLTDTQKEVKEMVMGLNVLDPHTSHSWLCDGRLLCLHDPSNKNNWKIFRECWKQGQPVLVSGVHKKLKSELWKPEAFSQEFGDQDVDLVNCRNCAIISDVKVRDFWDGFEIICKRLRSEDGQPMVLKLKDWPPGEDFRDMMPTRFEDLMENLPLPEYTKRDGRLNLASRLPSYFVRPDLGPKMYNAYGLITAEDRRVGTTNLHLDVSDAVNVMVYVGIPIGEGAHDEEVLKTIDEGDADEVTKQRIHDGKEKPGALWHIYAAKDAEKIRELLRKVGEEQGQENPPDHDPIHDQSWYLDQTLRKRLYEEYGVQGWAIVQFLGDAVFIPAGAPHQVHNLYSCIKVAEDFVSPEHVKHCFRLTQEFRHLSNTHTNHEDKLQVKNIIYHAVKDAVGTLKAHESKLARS

Cc1cc(C)cc(C(=O)NNC(=O)c2ccccn2)c1 [PFI-63]
cell morphology [1]: elongation of cells | IC50 [2]: 4.82 µM | MYOG (Western blot) [3]: increase | cleaved PARP (Western blot) [3]: apoptosis; also recorded: increases | caspase 3 [4]: increased caspase 3 | synthetic lethality of targets of histone lysine demethylases [5]: synthetically lethal | IC50 [6, 14]: 7.57 µM | IC50 [6, 15]: ~7.5 µM | logP [7]: 2.36 | IC50 [8]: 2 to 3 µM | cell death by annexin V staining [9]: increase in cell death | H3K4me3 (Western blot) ([10]; treated cells): global increase | H3K9me3 (Western blot) ([10]; treated cells): global increase | H3K27me3 (Western blot) ([10]; treated cells): global increase

O=C(NNc1ccccn1)c1ccccn1 [PFI-90]
IC50 [2]: 3.2 µM | PAX3-FOXO1 (Western blot) ([3]; 3 μM, 24 hours): decreases | cleaved PARP (Western blot) ([3]; 3 μM, 24 hours): increases | chemical shift perturbation upon addition of truncated KDM3B catalytic domain [11]: not influences by 2-OG presence; also recorded: not influenced by the presence of 2-OG | peak height attenuation (CPMG) ([12]; 1 of 9 peaks): 70% | peak height attenuation (CPMG) ([12]; 3 of 9 peaks): 50% | peak height attenuation (CPMG) ([12]; 5 out of 9 PFI-90 peaks): Complete/near complete | binding (CPMG) ([12]; in the presence and absence of 2-OG): Strong binding | caspase 3 [4]: increased caspase 3 | IC50 [6, 14]: 1.9 µM | IC50 [6, 15]: ~2 µM | logP [7]: 0.82 | solubility ([7]; relative to PFI-63): improved solubility relative to PFI-63 | binding (WaterLOGSY) [13]: found to bind; also recorded: binds | cell death by annexin V staining [9]: increase in cell death | methylation of histone H3 (Western blot) ([10]; as the concentration increases): also increases
